From patent US9085576B2 (AMGEN INC., priority 2013, dated 2015) come the findings set out here.

One test deals with Cathepsin D (Cat D) (Homo sapiens (Human), UniProt P07339). Put plainly: In vitro enzymatic Cathepsin D (Cat D) FRET assay. In kind it is biochemical. The conditions noted are these: read-out: CatD IC50.
In another test the target is BACE (Homo sapiens (Human), UniProt P56817). Put plainly: In vitro BACE cell-based assay (Aβ40 in conditioned medium, sandwich ELISA). (In general: An ELISA detects its analyte on a solid surface through an enzyme-linked reagent.)
In test [1] the target is Beta Secretase enzyme (BACE) (Homo sapiens (Human), UniProt P56817). Briefly: In vitro enzymatic BACE FRET assay. In kind it is biochemical. The conditions noted are these: read-out: BACE1 Enzyme assay IC50.
Chain of Beta Secretase enzyme (BACE) (P56817 46-501): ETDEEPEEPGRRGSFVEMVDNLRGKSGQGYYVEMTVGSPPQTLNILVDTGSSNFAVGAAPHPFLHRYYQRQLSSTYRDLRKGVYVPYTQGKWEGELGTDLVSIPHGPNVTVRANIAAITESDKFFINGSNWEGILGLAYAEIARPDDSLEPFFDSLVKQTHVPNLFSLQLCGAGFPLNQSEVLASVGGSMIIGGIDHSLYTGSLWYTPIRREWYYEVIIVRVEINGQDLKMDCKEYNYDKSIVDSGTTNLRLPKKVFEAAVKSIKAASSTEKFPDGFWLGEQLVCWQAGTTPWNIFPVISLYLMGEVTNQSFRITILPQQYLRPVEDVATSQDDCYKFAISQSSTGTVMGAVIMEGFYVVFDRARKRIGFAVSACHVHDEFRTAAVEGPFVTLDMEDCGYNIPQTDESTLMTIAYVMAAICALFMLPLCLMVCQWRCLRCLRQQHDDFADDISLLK
Protocol: In Vitro Enzymatic BACE FRET (Fluorescence Resonance Energy Transfer) Assay (Enzyme Assay Data in the Example Table I)
The assay buffer used in this screen is 0.05 M acetate, pH 4.2, 10% DMSO final, 100 uM genapol (which is a nonionic detergent, below its Critical Micelle Concentration). […] This assay is effectively started by the addition of FRET substrate (50 nM) and the combination is incubated for one hour. The FRET assay is terminated with by addition of Tris buffer, which raises the pH to neutrality, and the fluorescence is determined. The FRET substrate is a peptide with commercially available fluorophore and quencher, on opposite sides of the BACE cleavage site.

Chain of BACE (P56817 46-501, species assumed): as the sequence (P56817 46-501) above
Chain of Cathepsin D (Cat D) (P07339 65-412, species assumed): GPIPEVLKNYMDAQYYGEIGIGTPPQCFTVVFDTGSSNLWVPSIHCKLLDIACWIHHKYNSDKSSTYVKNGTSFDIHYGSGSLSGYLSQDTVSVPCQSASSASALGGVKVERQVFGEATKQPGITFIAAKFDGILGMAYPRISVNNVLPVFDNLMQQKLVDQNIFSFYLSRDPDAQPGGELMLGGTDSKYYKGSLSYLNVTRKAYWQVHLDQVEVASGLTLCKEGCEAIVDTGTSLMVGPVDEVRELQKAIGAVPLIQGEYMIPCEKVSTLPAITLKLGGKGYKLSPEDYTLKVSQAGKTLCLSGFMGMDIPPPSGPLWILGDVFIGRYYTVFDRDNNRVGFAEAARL

In the case of `COc1cnc(C(=O)Nc2ccc(F)c([C@]3(C(F)F)N=C(N)O[C@H]4C[C@H]43)c2)c(C)n1` [Example 64, N-(3-((1S,5R,6S)-3-amino-5-(difluoromethyl)-2-oxa-4-azabicyclo[4.1.0]hept-3-en-5-yl)-4-fluorophenyl)-5-methoxy-3-methylpyrazine-2-carboxamide], the IC50 – broadly, the concentration at which inhibition is half-maximal – on Cathepsin D (Cat D) was 191 µM; against BACE, more than 15.6 µM; in test [1] it was 6.19 µM.
The like results for `C[C@]1(c2cc(NC(=O)c3ccc(Cl)cn3)ccc2F)N=C(N)O[C@@H]2C[C@@H]21` [Example 68] were, in that order, 476 µM, 0.0063 µM and 0.065 µM.
On to `Cc1c(C(=O)Nc2ccc(F)c([C@@]3(C(F)F)N=C(N)O[C@@H]4C[C@@H]43)c2)nc2ccc(Cl)cn12` [Example 69], for which the IC50 was determined as 440 µM at Cathepsin D (Cat D), 0.0372 µM against BACE and 0.126 µM in test [1].
The like results for `COc1cnc(C(=O)Nc2ccc(F)c([C@@]3(C(F)F)N=C(N)O[C@@H]4C[C@@H]43)c2)cn1` [Example 72, N-(3-((1R,5S,6R)-3-amino-5-(difluoromethyl)-2-oxa-4-azabicyclo[4.1.0]hept-3-en-5-yl)-4-fluorophenyl)-5-methoxypyrazine-2-carboxamide] were, in that order, 1110 µM, 0.0604 µM and 0.0763 µM.
Turning to `COc1ccc(C(=O)Nc2ccc(F)c([C@]3(CF)N=C(N)O[C@H]4C[C@H]43)c2F)nc1` [Example 78, N-(3-((1S,5R,6S)-3-amino-5-(fluoromethyl)-2-oxa-4-azabicyclo[4.1.0]hept-3-en-5-yl)-2,4-difluorophenyl)-5-methoxypicolinamide], the IC50 at Cathepsin D (Cat D) is more than 400 µM; at BACE it was more than 15.6 µM; in test [1], more than 40 µM.
The matching figures for `COc1ccc(C(=O)Nc2ccc(F)c([C@@]3(CF)N=C(N)O[C@@H]4C[C@@H]43)c2F)nc1` [Example 79, N-(3-((1R,5S,6R)-3-amino-5-(fluoromethyl)-2-oxa-4-azabicyclo[4.1.0]hept-3-en-5-yl)-2,4-difluorophenyl)-5-methoxypicolinamide]: 942 µM, 0.12 µM and 3.04 µM.
The matching figures for `COC[C@]1(c2cc(NC(=O)c3cnc(OC)cn3)ccc2F)N=C(N)O[C@@H]2C[C@@H]21` [Example 80, N-(3-((1R,5S,6R)-3-amino-5-(methoxymethyl)-2-oxa-4-azabicyclo[4.1.0]hept-3-en-5-yl)-4-fluorophenyl)-5-methoxypyrazine-2-carboxamide]: more than 400 µM, 0.183 µM and 7.95 µM.
With `COC[C@@]1(c2cc(NC(=O)c3cnc(OC)cn3)ccc2F)N=C(N)O[C@H]2C[C@H]21` [Example 81, N-(3-((1S,5R,6S)-3-amino-5-(methoxymethyl)-2-oxa-4-azabicyclo[4.1.0]hept-3-en-5-yl)-4-fluorophenyl)-5-methoxypyrazine-2-carboxamide], the IC50 at Cathepsin D (Cat D) is more than 400 µM; on BACE, more than 15.6 µM; in test [1], more than 40 µM.
The matching figures for `COC[C@]1(c2cc(NC(=O)c3ccc(Cl)cn3)ccc2F)N=C(N)O[C@@H]2C[C@@H]21` [Example 82, N-(3-((1R,5S,6R)-3-amino-5-(methoxymethyl)-2-oxa-4-azabicyclo[4.1.0]hept-3-en-5-yl)-4-fluorophenyl)-5-chloropicolinamide]: more than 400 µM, 0.157 µM and 2.74 µM.
The like results for `COC[C@@]1(c2cc(NC(=O)c3ccc(Cl)cn3)ccc2F)N=C(N)O[C@H]2C[C@H]21` [Example 83, N-(3-((1 S,5R,6S)-3-amino-5-(methoxymethyl)-2-oxa-4-azabicyclo[4.1.0]hept-3-en-5-yl)-4-fluorophenyl)-5-chloropicolinamide] were, in that order, more than 400 µM, more than 15.6 µM and more than 40 µM.
The like results for `COc1cnc(C(=O)Nc2ccc(F)c([C@@]3(C(F)F)N=C(N)O[C@@H]4C[C@@H]43)c2)c(OC)n1` [Example 84, N-(3-((1R,5S,6R)-3-amino-5-(difluoromethyl)-2-oxa-4-azabicyclo[4.1.0]hept-3-en-5-yl)-4-fluorophenyl)-3,5-dimethoxypyrazine-2-carboxamide] were, in that order, more than 400 µM, 0.361 µM and 0.494 µM.
In the case of `COc1cnc(C(=O)Nc2cc(Cl)c(F)c([C@@]3(CF)N=C(N)O[C@@H]4C[C@@H]43)c2)cn1` [Example 85, N-(3-((1R,5S,6R)-3-amino-5-(fluoromethyl)-2-oxa-4-azabicyclo[4.1.0]hept-3-en-5-yl)-5-chloro-4-fluorophenyl)-5-methoxypyrazine-2-carboxamide], the figures for the IC50 (at Cathepsin D (Cat D); at BACE; in test [1]) were 373 µM, 0.0067 µM and 0.034 µM, respectively.
The like results for `COc1cc(C#N)cnc1C(=O)Nc1cc(Cl)c(F)c([C@@]2(CF)N=C(N)O[C@@H]3C[C@@H]32)c1` [Example 86, N-(3-((1R,5S,6R)-3-amino-5-(fluoromethyl)-2-oxa-4-azabicyclo[4.1.0]hept-3-en-5-yl)-5-chloro-4-fluorophenyl)-5-cyano-3-methoxypicolinamide] were, in that order, 892 µM, 0.0094 µM and 0.0759 µM.
The like results for `Cc1cc(OC(F)F)cnc1C(=O)Nc1cc(Cl)c(F)c([C@@]2(CF)N=C(N)O[C@@H]3C[C@@H]32)c1` [Example 87, N-(3-((1R,5S,6R)-3-amino-5-(fluoromethyl)-2-oxa-4-azabicyclo[4.1.0]hept-3-en-5-yl)-5-chloro-4-fluorophenyl)-5-(difluoromethoxy)-3-methylpicolinamide] were, in that order, 164 µM, 0.0135 µM and 0.0323 µM.
The like results for `N#Cc1ccc(C(=O)Nc2cc(Cl)c(F)c([C@@]3(CF)N=C(N)O[C@@H]4C[C@@H]43)c2)nc1` [Example 88, N-(3-((1R,5S,6R)-3-amino-5-(fluoromethyl)-2-oxa-4-azabicyclo[4.1.0]hept-3-en-5-yl)-5-chloro-4-fluorophenyl)-5-cyanopicolinamide] were, in that order, 302 µM, 0.0098 µM and 0.0294 µM.
Consider `COc1cnc(C(=O)Nc2cc(Cl)c(F)c([C@@]3(CF)N=C(N)O[C@@H]4C[C@@H]43)c2)c(C)n1` [Example 89, N-(3-((1R,5S,6R)-3-amino-5-(fluoromethyl)-2-oxa-4-azabicyclo[4.1.0]hept-3-en-5-yl)-5-chloro-4-fluorophenyl)-5-methoxy-3-methylpyrazine-2-carboxamide], for which the IC50 on Cathepsin D (Cat D) turned out to be 574 µM; on BACE it was 0.0245 µM; in test [1] it was 0.0731 µM.
The like results for `Cc1cc(C#N)cnc1C(=O)Nc1cc(Cl)c(F)c([C@@]2(CF)N=C(N)O[C@@H]3C[C@@H]32)c1` [Example 91, N-(3-((1R,5S,6R)-3-amino-5-(fluoromethyl)-2-oxa-4-azabicyclo[4.1.0]hept-3-en-5-yl)-5-chloro-4-fluorophenyl)-5-cyano-3-methylpicolinamide] were, in that order, 260 µM, 0.0073 µM and 0.0506 µM.
The like results for `NC1=N[C@](c2cc(NC(=O)c3ccc(Cl)cn3)ccc2Cl)(C(F)F)[C@@H]2C[C@@H]2O1` [Example 92, N-(3-((1S,5R,6S)-3-amino-5-(difluoromethyl)-2-oxa-4-azabicyclo[4.1.0]hept-3-en-5-yl)-4-chlorophenyl)-5-chloropicolinamide] were, in that order, 770 µM, more than 15.6 µM and 17.1 µM.
The matching figures for `COc1ccc(C(=O)Nc2ccc(Cl)c([C@@]3(C(F)F)N=C(N)O[C@@H]4C[C@@H]43)c2)nc1` [Example 100, N-(3-((1R,5S,6R)-3-amino-5-(difluoromethyl)-2-oxa-4-azabicyclo[4.1.0]hept-3-en-5-yl)-4-chlorophenyl)-5-methoxypicolinamide]: 190 µM, 0.0209 µM and 0.0611 µM.
As to `COc1cnc(C(=O)Nc2ccc(Cl)c([C@@]3(C(F)F)N=C(N)O[C@@H]4C[C@@H]43)c2)c(C)c1` [Example 101, N-(3-((1R,5S,6R)-3-amino-5-(difluoromethyl)-2-oxa-4-azabicyclo[4.1.0]hept-3-en-5-yl)-4-chlorophenyl)-5-methoxy-3-methylpicolinamide], the 50% inhibitory concentration (IC50) on Cathepsin D (Cat D) turned out to be 258 µM; on BACE it was 0.0598 µM; in test [1], 0.0971 µM.
The matching figures for `NC1=N[C@@](c2cc(NC(=O)c3cnc(OCc4cocn4)cn3)ccc2Cl)(C(F)F)[C@H]2C[C@H]2O1` [Example 102, N-(3-((1R,5S,6R)-3-amino-5-(difluoromethyl)-2-oxa-4-azabicyclo[4.1.0]hept-3-en-5-yl)-4-chlorophenyl)-5-(oxazol-4-ylmethoxy)pyrazine-2-carboxamide]: 592 µM, 0.013 µM and 0.0356 µM.
The matching figures for `COc1cnc(C(=O)Nc2ccc(F)c([C@@]3(C(F)F)N=C(N)O[C@@H]4C[C@@H]43)c2)nc1` [Example 103, N-(3-((1R,5S,6R)-3-amino-5-(difluoromethyl)-2-oxa-4-azabicyclo[4.1.0]hept-3-en-5-yl)-4-fluorophenyl)-5-methoxypyrimidine-2-carboxamide]: 763 µM, 0.0574 µM and 0.121 µM.
In the case of `COc1cnc(C(=O)Nc2ccc(Cl)c([C@@]3(C(F)F)N=C(N)O[C@@H]4C[C@@H]43)c2)nc1` [Example 104, N-(3-((1R,5S,6R)-3-amino-5-(difluoromethyl)-2-oxa-4-azabicyclo[4.1.0]hept-3-en-5-yl)-4-chlorophenyl)-5-methoxypyrimidine-2-carboxamide], the IC50 on Cathepsin D (Cat D) was found to be 374 µM; at BACE it was 0.0339 µM; in test [1] it was 0.0873 µM.
